Test results published in ChEMBL document CHEMBL1128353, “A novel approach to dual-acting thromboxane receptor antagonist/synthase inhibitors based on the link of 1,3-dioxane-thromboxane receptor antagonists and -thromboxane synthase inhibitors” (J Med Chem, 1995).

Experiments:
[1] = molecular target: T1, Thromboxane-A synthase (Homo sapiens, UniProt P24557); test: In vitro inhibitory activity against human microsomal thromboxane synthase.
T1 sequence (P24557 whole entry): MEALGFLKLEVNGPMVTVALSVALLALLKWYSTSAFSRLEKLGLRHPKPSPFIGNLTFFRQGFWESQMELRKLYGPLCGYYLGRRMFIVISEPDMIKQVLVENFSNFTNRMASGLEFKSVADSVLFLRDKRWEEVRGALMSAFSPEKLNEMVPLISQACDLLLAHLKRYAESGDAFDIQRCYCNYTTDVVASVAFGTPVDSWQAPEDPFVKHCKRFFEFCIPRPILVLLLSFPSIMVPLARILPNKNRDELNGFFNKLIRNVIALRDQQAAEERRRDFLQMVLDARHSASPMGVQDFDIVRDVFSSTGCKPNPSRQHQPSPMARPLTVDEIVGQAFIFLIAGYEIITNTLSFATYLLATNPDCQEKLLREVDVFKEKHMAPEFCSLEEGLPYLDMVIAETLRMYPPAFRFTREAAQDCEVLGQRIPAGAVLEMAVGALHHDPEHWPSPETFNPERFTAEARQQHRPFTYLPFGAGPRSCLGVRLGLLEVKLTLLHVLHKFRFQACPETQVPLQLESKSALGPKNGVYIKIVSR

[2] = organism: Homo sapiens; test: Antagonistic activity against human platelet aggregation induced by U-46,619.; assay type: functional, organism-based; details: read-out: pA2 (converted)
[3] = system: Rattus norvegicus; test: Compound at an oral dose of 10 mg/Kg was tested ex vivo in rat after 5 hr against platelet aggregation induced by U-46,619; assay type: functional, organism-based; details: read-out: pA2 (converted)
[4] = system: Canis familiaris; test: Compound at an oral dose of 1 mg/Kg was tested ex vivo after 5 hr for inhibition of thromboxane synthase in dog; assay type: functional; details: Canis lupus familiaris
[5] = system: Canis familiaris; test: Compound at an oral dose of 1 mg/Kg was tested ex vivo after 1 hr for inhibition of thromboxane synthase in dog; assay type: functional; details: Canis lupus familiaris
[6] = system: Canis familiaris; test: Compound at an oral dose of 1 mg/Kg was tested ex vivo after 3 hr for inhibition of thromboxane synthase in dog; assay type: functional; details: Canis lupus familiaris
[7] = system: Rattus norvegicus; test: Compound at an oral dose of 10 mg/Kg was tested ex vivo after 1 hr for inhibition of thromboxane synthase in rat; assay type: functional
[8] = system: Rattus norvegicus; test: Compound at an oral dose of 10 mg/Kg was tested ex vivo after 5 hr for inhibition of thromboxane synthase in rat; assay type: functional
[9] = system: Rattus norvegicus; test: Compound at an oral dose of 10 mg/Kg was tested ex vivo after 3 hr for inhibition of thromboxane synthase in rat; assay type: functional

SMILES | IC50 [1] | Kb [2] | also measured
O=C(O)CC/C=C\C[C@@H]1CO[C@H](c2cncc(/C(=C\CCCCC(=O)O)c3ccccc3)c2)O[C@@H]1c1ccccc1O | > 10000 nM | 25.1 nM | 
CC(C)(CCCCOc1ccc(/C(=C\CCCCC(=O)O)c2cccnc2)cc1)[C@H]1OC[C@@H](C/C=C\CCC(=O)O)[C@@H](c2ccccc2O)O1 | 30 nM | 251 nM | 
O=C(O)CC/C=C\C[C@@H]1CO[C@H](c2ccc3cc(/C(=C\CCCCC(=O)O)c4cccnc4)ccc3c2)O[C@@H]1c1ccccc1O | 50 nM | 251 nM | 
O=C(O)CC/C=C\C[C@@H]1CO[C@H](COc2cc(C(=O)O)ccc2OCCn2ccnc2)O[C@@H]1c1ccccc1O | 1700 nM | 3160 nM | 
O=C(O)CC/C=C\C[C@@H]1CO[C@H](c2ccc(OCCCCCCOc3cc(C(=O)O)ccc3OCCn3ccnc3)cc2)O[C@@H]1c1ccccc1O | 40 nM | 158 nM | 
O=C(O)CC/C=C\C[C@@H]1CO[C@H](c2ccc(OCCOc3ccc(/C(=C\CCCCC(=O)O)c4cccnc4)cc3)cc2)O[C@@H]1c1ccccc1O | 50 nM | 631 nM | 
O=C(O)CC/C=C\C[C@@H]1CO[C@H](c2cccc(OCCOc3cc(C(=O)O)ccc3OCCn3ccnc3)c2)O[C@@H]1c1ccccc1O | 30 nM | 158 nM | 
O=C(O)CC/C=C\C[C@@H]1CO[C@H](c2ccccc2OCCOc2cc(C(=O)O)ccc2OCCn2ccnc2)O[C@@H]1c1ccccc1O | 30 nM | 1260 nM | 
CC(C)(c1ccc(/C(=C\CCCCC(=O)O)c2cccnc2)cc1)[C@H]1OC[C@@H](C/C=C\CCC(=O)O)[C@@H](c2ccccc2O)O1 | 30 nM | 251 nM | 
CC(C)(CCCCCc1ccc(/C(=C\CCCCC(=O)O)c2cccnc2)cc1)[C@H]1OC[C@@H](C/C=C\CCC(=O)O)[C@@H](c2ccccc2O)O1 | 10 nM | 501 nM | 
O=C(O)CC/C=C\C[C@@H]1CO[C@H](c2ccc(OCCn3ccnc3)c(C(=O)O)c2)O[C@@H]1c1ccccc1O | 3800 nM | 1260 nM | 
O=C(O)CC/C=C\C[C@@H]1CO[C@H](CCCCCOc2ccc(/C(=C\CCCCC(=O)O)c3cccnc3)cc2)O[C@@H]1c1ccccc1O | 10 nM | 200 nM | 
O=C(O)CC/C=C\C[C@@H]1CO[C@H](c2ccccc2Cl)O[C@@H]1c1ccccc1O | > 100000 nM | 3.16 nM | Kb [3]: 100 nM
O=C(O)CC/C=C\C[C@@H]1CO[C@H](c2ccc(COc3ccc(/C(=C\CCCCC(=O)O)c4cccnc4)cc3)cc2)O[C@@H]1c1ccccc1O | 20 nM | 200 nM | 
O=C(O)CC/C=C\C[C@@H]1CO[C@H](C(CCC/C=C(/c2ccccc2)c2cccnc2)C(=O)O)O[C@@H]1c1ccccc1O (stereo partly drawn) | 40 nM | > 10000 nM | 
O=C(O)CC/C=C\C[C@@H]1CO[C@H](c2cccc(OCCOc3ccc(/C(=C\CCCCC(=O)O)c4cccnc4)cc3)c2)O[C@@H]1c1ccccc1O | 40 nM | 794 nM | 
O=C(O)CC/C=C\C[C@@H]1CO[C@H](CCOc2ccc(/C(=C\CCCCC(=O)O)c3cccnc3)cc2)O[C@@H]1c1ccccc1O | 30 nM | 200 nM | 
O=C(O)CC/C=C\C[C@@H]1CO[C@H](c2cccc(OCCCCCCOc3ccc(/C(=C\CCCCC(=O)O)c4cccnc4)cc3)c2)O[C@@H]1c1ccccc1O | 70 nM | 100 nM | 
O=C(O)CC/C=C\C[C@@H]1CO[C@H](c2cncc(/C(=C/CCCCC(=O)O)c3ccccc3)c2)O[C@@H]1c1ccccc1O | > 10000 nM | 39.8 nM | 
O=C(O)CC/C=C\C[C@@H]1CO[C@H](c2ccc(COc3cccc(/C(=C\CCCCC(=O)O)c4cccnc4)c3)cc2)O[C@@H]1c1ccccc1O | 10 nM | 100 nM | 
O=C(O)CC/C=C\C[C@@H]1CO[C@H](c2ccc(/C(=C\CCCCC(=O)O)c3cccnc3)cc2)O[C@@H]1c1ccccc1O | 40 nM | 100 nM | 
O=C(O)CC/C=C\C[C@@H]1CO[C@H](c2cccc(COc3ccc(/C(=C\CCCCC(=O)O)c4cccnc4)cc3)c2)O[C@@H]1c1ccccc1O | 40 nM | 200 nM | 
O=C(O)CC/C=C\C[C@@H]1CO[C@H](c2ccc(CCOc3ccc(/C(=C\CCCCC(=O)O)c4cccnc4)cc3)cc2)O[C@@H]1c1ccccc1O | 50 nM | 631 nM | 
O=C(O)CC/C=C\C[C@@H]1CO[C@H](c2ccc(OCCOc3cc(C(=O)O)ccc3OCCn3ccnc3)cc2)O[C@@H]1c1ccccc1O | 60 nM | 501 nM | 
O=C(O)CC/C=C\C[C@@H]1CO[C@H](CCCCCOc2cc(C(=O)O)ccc2OCCn2ccnc2)O[C@@H]1c1ccccc1O | 60 nM | 1260 nM | 
O=C(O)CC/C=C\C[C@@H]1CO[C@H](c2ccccc2OCCOc2ccc(/C(=C\CCCCC(=O)O)c3cccnc3)cc2)O[C@@H]1c1ccccc1O | 30 nM | 158 nM | 
O=C(O)CC/C=C\C[C@@H]1CO[C@H](CCCCCCCCCCOc2ccc(/C(=C\CCCCC(=O)O)c3cccnc3)cc2)O[C@@H]1c1ccccc1O | 40 nM | 2510 nM | 
O=C(O)CCCC/C=C(\c1ccccc1)c1cccnc1 [(E)-ISBOGREL] |  | > 10000 nM | inhibition in vivo at 1 mg/kg [4]: 82%; inhibition in vivo at 1 mg/kg [5]: 93%; inhibition in vivo at 1 mg/kg [6]: 83%; inhibition in vivo at 10 mg/kg [7]: 97%; inhibition in vivo at 10 mg/kg [8]: 87%; inhibition in vivo at 10 mg/kg [9]: 97%
O=C(O)c1ccc(OCCn2ccnc2)cc1 [DAZOXIBEN] |  | > 10000 nM | inhibition in vivo at 1 mg/kg [4]: 77%; inhibition in vivo at 1 mg/kg [5]: 73%; inhibition in vivo at 1 mg/kg [6]: 91%; inhibition in vivo at 10 mg/kg [7]: 86%; inhibition in vivo at 10 mg/kg [9]: 87%
